We go through one compound from ChEMBL document CHEMBL6153149, “Cyclic Peptides Targeting Granzyme B: Potential Applications as PET Imaging Agents” (ACS Med Chem Lett, 2025).

This test has as its target Granzyme B (Homo sapiens, UniProt P10144). The experiment in a line: Binding affinity to human granzyme B assessed as equilibrium dissociation constant by SPR method. (In SPR one partner is held on a chip, and binding of the other changes the refractive index at the surface.)

Bridge positions count the residues as written; N and C are the ends. Square brackets hold non-standard residues; d marks the D form. Peptide text beside a SMILES is read from it. * marks the point of attachment. X1 = O=C(O)CN1CCN(CC(=O)O)CC(Cc2ccc(NC(=S)*)cc2)N(CC(=O)O)CC1; NMeF = CN[C@@H](Cc1ccccc1)C(=O)O

Chain of Granzyme B (P10144 whole entry): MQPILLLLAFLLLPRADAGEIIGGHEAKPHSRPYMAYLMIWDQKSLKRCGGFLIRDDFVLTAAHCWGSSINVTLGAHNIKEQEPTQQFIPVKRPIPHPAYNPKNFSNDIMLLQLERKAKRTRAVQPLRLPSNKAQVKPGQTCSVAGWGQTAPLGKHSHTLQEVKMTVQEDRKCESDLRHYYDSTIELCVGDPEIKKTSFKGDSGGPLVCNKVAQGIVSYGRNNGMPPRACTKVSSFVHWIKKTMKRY

In the case of `CC(C)[C@@H]1NC(=O)[C@H](CC(=O)O)NC(=O)[C@H](Cc2ccc(O)cc2)NC(=O)[C@H](Cc2ccc(O)cc2)NC(=O)[C@H](Cc2ccccc2)N(C)C(=O)[C@H](Cc2ccccc2)N(C)C(=O)[C@H](Cc2ccccc2)NC(=O)CSC[C@@H](C(=O)NCC(=O)NCC(=O)N[C@@H](CCCCNC(=S)Nc2ccc(CC3CN(CC(=O)O)CCN(CC(=O)O)CCN3CC(=O)O)cc2)C(N)=O)NC(=O)[C@H](Cc2c[nH]cn2)NC(=O)[C@H](Cc2ccccc2)N(C)C(=O)[C@H](Cc2ccc(O)cc2)NC(=O)[C@H](C(C)C)NC(=O)[C@H](CC(=O)O)NC(=O)[C@H](C(C)C)NC(=O)[C@H](CC(=O)O)NC1=O` (stereo partly specified) ({CH2CO}-F[NMeF][NMeF]YYDVDVDVY[NMeF]HCGGK(X1)-NH2; thioether N-15), the Kd (as a rule, the equilibrium constant for the complex coming apart) came to 1.1 nM.
